This note sets out measurements from PubChem BioAssay AID256 (DTP/NCI, 2004).

This assay deals with CD2F1 mice, L1210 leukemia ip, survival T/C. The assay is described as follows: NCI In Vivo Anticancer Drug Screen. Data for tumor model L1210 Leukemia (intraperitoneal) in CD2F1 (CDF1) mice. As to conditions: higher = longer survival. Put shortly:
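Activity against a transplanted murine tumor was judged by comparing the compound group with a vehicle group. The outcome in the treated animals was divided by that in the controls.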

The mark [1] stands for this setting: endpoint: mean survival time, dose: 100.0 mg/kg/injection, schedule: Q04DX003 (ip), vehicle: saline with Tween-80.
Setting [2] is: endpoint: mean survival time, dose: 200.0 mg/kg/injection, schedule: Q04DX003 (ip), vehicle: saline with Tween-80.
Setting [3] is: endpoint: mean survival time, dose: 400.0 mg/kg/injection, schedule: Q04DX003 (ip), vehicle: saline with Tween-80.
Setting [4] is: endpoint: mean survival time, dose: 100.0 mg/kg/injection, schedule: Q04DX002 (ip), vehicle: saline with Tween-80.
The mark [5] stands for this setting: endpoint: mean survival time, dose: 200.0 mg/kg/injection, schedule: Q04DX002 (ip), vehicle: saline with Tween-80.
Setting [6] is: endpoint: mean survival time, dose: 100.0 mg/kg/injection, schedule: Q01DX001 (ip), vehicle: saline.
Where [7] appears, read: endpoint: mean survival time, dose: 200.0 mg/kg/injection, schedule: Q01DX001 (ip), vehicle: saline.
Where [8] appears, read: endpoint: mean survival time, dose: 400.0 mg/kg/injection, schedule: Q01DX001 (ip), vehicle: saline.
Setting [9] is: endpoint: mean survival time, dose: 50.0 mg/kg/injection, schedule: Q04DX002 (ip), vehicle: saline with Tween-80.

Where “and” joins values, the source holds several entries; their conditions need not be identical. Identical values can stand only once. Toxic doses and inconclusive results are not listed.

As for `O=NNc1ccccn1`, the T/C reads like this: (endpoint: mean survival time, dose: 8.0 mg/kg/injection, schedule: Q04DX003 (ip), vehicle: saline) 114 % of control; (endpoint: median survival time, dose: 0.78 mg/kg/injection, schedule: Q01DX009 (ip), vehicle: saline) 104 % of control; (endpoint: median survival time, dose: 1.56 mg/kg/injection, schedule: Q01DX005 (ip), vehicle: saline) 107 % of control; (endpoint: median survival time, dose: 1.56 mg/kg/injection, schedule: Q01DX009 (ip), vehicle: saline) 106 % of control; (endpoint: median survival time, dose: 3.12 mg/kg/injection, schedule: Q01DX005 (ip), vehicle: saline) 117 % of control and 110 % of control; (endpoint: median survival time, dose: 3.12 mg/kg/injection, schedule: Q01DX009 (ip), vehicle: saline) 110 % of control. For the same compound, the T/C (endpoint: median survival time, dose: 3.13 mg/kg/injection, schedule: Q01DX005 (ip), vehicle: saline) was 122 % of control; the T/C (endpoint: median survival time, dose: 6.25 mg/kg/injection, schedule: Q01DX005 (ip), vehicle: saline) is 117 % of control; the T/C (endpoint: median survival time, dose: 6.25 mg/kg/injection, schedule: Q01DX009 (ip), vehicle: saline) was 119 % of control; the T/C (endpoint: median survival time, dose: 12.5 mg/kg/injection, schedule: Q01DX005 (ip), vehicle: saline) was 160 % of control; the T/C (endpoint: median survival time, dose: 25.0 mg/kg/injection, schedule: Q01DX005 (ip), vehicle: saline) is 184 % of control and 187 % of control; the T/C (endpoint: median survival time, dose: 50.0 mg/kg/injection, schedule: Q01DX005 (ip), vehicle: saline) is 96 % of control and 103 % of control.

With `O=C(OCCNc1ccc([N+](=O)[O-])cc1[N+](=O)[O-])c1ccccc1`, the T/C runs as follows: (endpoint: mean survival time, dose: 100.0 mg/kg/injection, schedule: Q04DX002 (ip), vehicle: other) 101 % of control; (endpoint: mean survival time, dose: 200.0 mg/kg/injection, schedule: Q04DX002 (ip), vehicle: other) 108 % of control; (endpoint: mean survival time, dose: 400.0 mg/kg/injection, schedule: Q04DX002 (ip), vehicle: other) 96 % of control.

On to `CCCCOC(=O)CC(=O)OCCCC`, for which the T/C runs as follows: (endpoint: mean survival time, dose: 100.0 mg/kg/injection, schedule: Q01DX009 (ip), vehicle: saline with Tween-80) 102 % of control; under setting [1], 101 % of control; (endpoint: mean survival time, dose: 200.0 mg/kg/injection, schedule: Q01DX009 (ip), vehicle: saline with Tween-80) 104 % of control; under setting [2], 93 % of control; (endpoint: mean survival time, dose: 400.0 mg/kg/injection, schedule: Q01DX009 (ip), vehicle: saline with Tween-80) 96 % of control; under setting [3], 93 % of control.

Regarding `CCOC(=O)C(CC(C)C)NC(=O)C(N)Cc1ccc(N(CCCl)CCCl)cc1` (stereo unspecified), the T/C is 106 % of control (endpoint: mean survival time, dose: 1.25 mg/kg/injection, schedule: Q01DX009 (ip), vehicle: water); 115 % of control and 119 % of control (endpoint: mean survival time, dose: 2.5 mg/kg/injection, schedule: Q01DX009 (ip), vehicle: water); 169 % of control (endpoint: mean survival time, dose: 10.0 mg/kg/injection, schedule: Q01DX009 (ip), vehicle: water); 114 % of control (endpoint: mean survival time, dose: 20.0 mg/kg/injection, schedule: Q01DX009 (ip), vehicle: water); 118 % of control (endpoint: median survival time, dose: 3.6 mg/kg/injection, schedule: Q01DX009 (ip), vehicle: water); 175 % of control (endpoint: median survival time, dose: 16.67 mg/kg/injection, schedule: Q01DX009 (ip), vehicle: water). Further, the T/C (endpoint: median survival time, dose: 27.78 mg/kg/injection, schedule: Q01DX009 (ip), vehicle: water) is 118 % of control.

For `O=S1(=O)OC2(CCCCC2)c2ccccc21`, the T/C (endpoint: mean survival time, dose: 100.0 mg/kg/injection, schedule: Q01DX001 (ip), vehicle: saline with Tween-80) is 95 % of control; the T/C under setting [4] is 96 % of control; the T/C (endpoint: mean survival time, dose: 200.0 mg/kg/injection, schedule: Q01DX001 (ip), vehicle: saline with Tween-80) is 95 % of control; the T/C under setting [5] is 90 % of control; the T/C (endpoint: mean survival time, dose: 400.0 mg/kg/injection, schedule: Q01DX001 (ip), vehicle: saline with Tween-80) was 100 % of control; the T/C (endpoint: mean survival time, dose: 400.0 mg/kg/injection, schedule: Q04DX002 (ip), vehicle: saline with Tween-80) is 93 % of control.

Regarding `C=C(Br)CNCCCCCC`, the T/C reads like this: (endpoint: mean survival time, dose: 12.5 mg/kg/injection, schedule: Q04DX003 (ip), vehicle: Klucel (hydroxypropylcellulose) (HPC)) 97 % of control; (endpoint: mean survival time, dose: 25.0 mg/kg/injection, schedule: Q04DX003 (ip), vehicle: Klucel (hydroxypropylcellulose) (HPC)) 100 % of control; (endpoint: mean survival time, dose: 50.0 mg/kg/injection, schedule: Q04DX003 (ip), vehicle: Klucel (hydroxypropylcellulose) (HPC)) 94 % of control.

For the compound `CCN(CC)C(=O)Nc1ccc(Cl)cc1`, the T/C was 104 % of control under setting [4] and 108 % of control under setting [5].

Turning to `O=c1[nH]c2c(c(=O)n1-c1ccccc1)CCO2`, the T/C is 98 % of control under setting [6], 91 % of control under setting [7] and 98 % of control under setting [8].

In the case of `CNC`, the T/C (endpoint: mean survival time, dose: 100.0 mg/kg/injection, schedule: Q04DX002 (ip), vehicle: saline) was 86 % of control.

As to `N#CCCc1ccccc1`, the T/C (endpoint: mean survival time, dose: 3.13 mg/kg/injection, schedule: Q01DX009 (ip), vehicle: saline with Tween-80) is 97 % of control; the T/C (endpoint: mean survival time, dose: 3.13 mg/kg/injection, schedule: Q04DX003 (ip), vehicle: saline) was 92 % of control; the T/C (endpoint: mean survival time, dose: 6.25 mg/kg/injection, schedule: Q01DX009 (ip), vehicle: saline with Tween-80) was 94 % of control; the T/C (endpoint: mean survival time, dose: 6.25 mg/kg/injection, schedule: Q04DX003 (ip), vehicle: saline) was 89 % of control; the T/C (endpoint: mean survival time, dose: 12.5 mg/kg/injection, schedule: Q01DX009 (ip), vehicle: saline with Tween-80) was 94 % of control; the T/C (endpoint: mean survival time, dose: 12.5 mg/kg/injection, schedule: Q04DX003 (ip), vehicle: saline with Tween-80) was 106 % of control. Besides, the T/C reads like this: (endpoint: mean survival time, dose: 12.5 mg/kg/injection, schedule: Q04DX003 (ip), vehicle: saline) 92 % of control; (endpoint: mean survival time, dose: 25.0 mg/kg/injection, schedule: Q04DX003 (ip), vehicle: saline with Tween-80) 123 % of control; (endpoint: mean survival time, dose: 50.0 mg/kg/injection, schedule: Q04DX003 (ip), vehicle: saline with Tween-80) 92 % of control.

For the compound `CN(C)N=Nc1ccc(N=Nc2ccc(N(CCO)CCO)cc2)cc1`, the T/C is 102 % of control under setting [6], 93 % of control under setting [7] and 101 % of control under setting [8].

For `CC1=CC(c2ccccc2)=CC(C)(C)C1` (tested in a mixture with another compound), the T/C is 95 % of control (endpoint: mean survival time, dose: 25.0 mg/kg/injection, schedule: Q01DX009 (ip), vehicle: saline sonified); 103 % of control (endpoint: mean survival time, dose: 50.0 mg/kg/injection, schedule: Q01DX009 (ip), vehicle: saline sonified); 103 % of control (endpoint: mean survival time, dose: 100.0 mg/kg/injection, schedule: Q01DX009 (ip), vehicle: saline sonified); 94 % of control under setting [1].

In the case of `COc1ccc2c(c1)C1(C)C/C(=C\c3ccoc3)C(=O)C(C)C1CC2` (stereo unspecified), the T/C is, setting by setting: under setting [6], 94 % of control; under setting [7], 94 % of control; under setting [8], 102 % of control.

As to `Cc1ccc(S(=O)(=O)OCC2C3CCC(C3)C2COS(=O)(=O)c2ccc(C)cc2)cc1` (stereo unspecified), the T/C reads like this: (endpoint: mean survival time, dose: 25.0 mg/kg/injection, schedule: Q04DX002 (ip), vehicle: saline with Tween-80) 95 % of control; under setting [9], 95 % of control; under setting [4], 95 % of control and 98 % of control.

For the compound `O=S(=O)(O)c1ccc2ncccc2c1`, the T/C under setting [9] was 111 % of control.

Regarding `Nc1ccc(OCC(O)CN2CCN(c3ccccc3)CC2)cc1` (stereo unspecified), the T/C runs as follows: under setting [4], 94 % of control; under setting [5], 107 % of control.

For `CN(C)N=Nc1ccc(C(=O)N/N=C/c2ccc([N+](=O)[O-])cc2)cc1`, the T/C was 97 % of control (endpoint: mean survival time, dose: 100.0 mg/kg/injection, schedule: Q04DX003 (ip), vehicle: saline); 93 % of control (endpoint: mean survival time, dose: 200.0 mg/kg/injection, schedule: Q04DX003 (ip), vehicle: saline); 93 % of control (endpoint: mean survival time, dose: 400.0 mg/kg/injection, schedule: Q04DX003 (ip), vehicle: saline).

Regarding `[Cl][Pt+2][Cl].[NH-]c1ccc(CC(=O)O)cc1[NH-]`, the T/C is 103 % of control (endpoint: mean survival time, dose: 3.13 mg/kg/injection, schedule: Q04DX003 (ip), vehicle: water); 105 % of control (endpoint: mean survival time, dose: 6.25 mg/kg/injection, schedule: Q04DX003 (ip), vehicle: water); 101 % of control (endpoint: mean survival time, dose: 12.5 mg/kg/injection, schedule: Q04DX003 (ip), vehicle: water); 116 % of control (endpoint: mean survival time, dose: 25.0 mg/kg/injection, schedule: Q04DX003 (ip), vehicle: water).

For the compound `S=C(S)c1[nH]c(=S)[nH]c(=S)c1Cl`, the T/C reads like this: under setting [1], 96 % of control; under setting [2], 101 % of control; under setting [3], 87 % of control.

`C=CCOc1ccc(C=O)cc1`: the T/C by setting is: under setting [6], 102 % of control; under setting [7], 102 % of control; under setting [8], 97 % of control.
